Reference: PubChem BioAssay AID248 (DTP/NCI, 2004)
Where “and” joins values, the source holds several entries; their conditions need not be identical. Equal entries are not always repeated. Inconclusive results and toxic doses are left out. No stated cut-off is given here; in the data, active means T/C of 150% or more; inactive means T/C below 125%.

System: L1210 leukemia ip in BDF1 mice, survival T/C
Test: NCI In Vivo Anticancer Drug Screen. Data for tumor model L1210 Leukemia (intraperitoneal) in B6D2F1 (BDF1) mice
Conditions: endpoint: mean survival time, higher = longer survival
Outline: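 Each compound was tested against a transplantable tumor grown in mice. The endpoint was survival, with treated animals benchmarked against vehicle controls as a simple ratio.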

[1] = dose: 100.0 mg/kg/injection, schedule: Q04DX003 (ip), vehicle: Klucel (hydroxypropylcellulose) (HPC)
[2] = dose: 200.0 mg/kg/injection, schedule: Q04DX003 (ip), vehicle: Klucel (hydroxypropylcellulose) (HPC)
[3] = dose: 400.0 mg/kg/injection, schedule: Q04DX003 (ip), vehicle: Klucel (hydroxypropylcellulose) (HPC)
[4] = dose: 100.0 mg/kg/injection, schedule: Q04DX003 (ip), vehicle: gum acacia
[5] = dose: 200.0 mg/kg/injection, schedule: Q04DX003 (ip), vehicle: gum acacia
[6] = dose: 400.0 mg/kg/injection, schedule: Q04DX003 (ip), vehicle: gum acacia
[7] = dose: 100.0 mg/kg/injection, schedule: Q01DX001 (ip), vehicle: saline with Tween-80
[8] = dose: 100.0 mg/kg/injection, schedule: Q04DX002 (ip), vehicle: saline with Tween-80
[9] = dose: 100.0 mg/kg/injection, schedule: Q04DX003 (ip), vehicle: saline with Tween-80
[10] = dose: 200.0 mg/kg/injection, schedule: Q04DX002 (ip), vehicle: saline with Tween-80
[11] = dose: 200.0 mg/kg/injection, schedule: Q04DX003 (ip), vehicle: saline with Tween-80
[12] = dose: 400.0 mg/kg/injection, schedule: Q04DX002 (ip), vehicle: saline with Tween-80
[13] = dose: 400.0 mg/kg/injection, schedule: Q04DX003 (ip), vehicle: saline with Tween-80
[14] = dose: 100.0 mg/kg/injection, schedule: Q01DX001 (ip), vehicle: Klucel (hydroxypropylcellulose) (HPC)
[15] = dose: 200.0 mg/kg/injection, schedule: Q01DX001 (ip), vehicle: Klucel (hydroxypropylcellulose) (HPC)
[16] = dose: 400.0 mg/kg/injection, schedule: Q01DX001 (ip), vehicle: Klucel (hydroxypropylcellulose) (HPC)
[17] = dose: 100.0 mg/kg/injection, schedule: Q01DX009 (ip), vehicle: Klucel (hydroxypropylcellulose) (HPC)
[18] = dose: 200.0 mg/kg/injection, schedule: Q01DX009 (ip), vehicle: Klucel (hydroxypropylcellulose) (HPC)

Measured: T/C

CC(C)(C)C(=O)CSC/C(=N/O)C(C)(C)C
inactive: [1] 112 % of control | [2] 103 % of control | [3] 99 % of control

O=[N+]([O-])c1ccc(OCCCCCBr)c(Cl)c1
inactive: [4] 102 % of control | [5] 100 % of control | [6] 102 % of control

O=C(Nc1ccccc1C(F)(F)F)c1cccc(Cl)c1
inactive: dose: 50.0 mg/kg/injection, schedule: Q01DX009 (ip), vehicle: saline + alcohol 89 % of control | dose: 100.0 mg/kg/injection, schedule: Q01DX009 (ip), vehicle: saline + alcohol 101 % of control | dose: 200.0 mg/kg/injection, schedule: Q01DX009 (ip), vehicle: saline + alcohol 94 % of control

CCCCCCCCCCCCCCCCNCC(=O)Nc1ccc(S(=O)(=O)c2ccc(NC(=O)CNCCCCCCCCCCCCCCCC)cc2)cc1
inactive: dose: 4.0 mg/kg/injection, schedule: Q01DX015 (ip), vehicle: carboxymethylcellulose (CMC) 94 % of control | dose: 8.0 mg/kg/injection, schedule: Q01DX015 (ip), vehicle: carboxymethylcellulose (CMC) 94 % of control | dose: 16.0 mg/kg/injection, schedule: Q01DX015 (ip), vehicle: carboxymethylcellulose (CMC) 104 % of control | dose: 32.0 mg/kg/injection, schedule: Q01DX015 (ip), vehicle: carboxymethylcellulose (CMC) 93 % of control and 101 % of control | dose: 64.0 mg/kg/injection, schedule: Q01DX015 (ip), vehicle: carboxymethylcellulose (CMC) 117 % of control | dose: 100.0 mg/kg/injection, schedule: Q01DX001 (ip), vehicle: other 89 % of control | dose: 200.0 mg/kg/injection, schedule: Q01DX001 (ip), vehicle: other 100 % of control

OC12c3ccccc3C1(c1ccccn1)c1ccccc12 (stereo not given)
inactive: dose: 100.0 mg/kg/injection, schedule: Q01DX009 (ip), vehicle: gum acacia 98 % of control | [4] 98 % of control | dose: 200.0 mg/kg/injection, schedule: Q01DX009 (ip), vehicle: gum acacia 96 % of control | [5] 98 % of control | dose: 400.0 mg/kg/injection, schedule: Q01DX009 (ip), vehicle: gum acacia 100 % of control | [6] 103 % of control

Cc1cccc(NC(=S)NC(=O)CCc2ccccc2)c1C
inactive: dose: 25.0 mg/kg/injection, schedule: Q01DX009 (ip), vehicle: saline with Tween-80 94 % of control and 88 % of control | dose: 50.0 mg/kg/injection, schedule: Q01DX009 (ip), vehicle: saline with Tween-80 94 % of control and 88 % of control | [7] 95 % of control | [8] 95 % of control and 90 % of control | [9] 86 % of control | dose: 200.0 mg/kg/injection, schedule: Q01DX001 (ip), vehicle: saline with Tween-80 98 % of control | [10] 93 % of control | [11] 89 % of control | dose: 400.0 mg/kg/injection, schedule: Q01DX001 (ip), vehicle: saline with Tween-80 97 % of control | [12] 93 % of control and 102 % of control | [13] 86 % of control

O=C(c1ccccc1)C1NC1c1ccccc1 (stereo not given)
inactive: [14] 97 % of control | [15] 92 % of control | [16] 95 % of control

Cc1ccc(/C(O)=C\C(=S)SS)cc1
inactive: [14] 108 % of control | dose: 100.0 mg/kg/injection, schedule: Q01DX009 (ip), vehicle: saline 100 % of control | [1] 97 % of control | [15] 100 % of control | dose: 200.0 mg/kg/injection, schedule: Q01DX009 (ip), vehicle: saline 102 % of control | [2] 90 % of control | [16] 97 % of control | dose: 400.0 mg/kg/injection, schedule: Q01DX009 (ip), vehicle: saline 100 % of control | [3] 92 % of control

O=c1[nH]c2ccccc2n1C1CCN(CCCS(=O)(=O)c2ccccc2)CC1
inactive: [5] 91 % of control | [6] 87 % of control

CC(=O)NC(C=O)CC(C=O)CO (stereo not given)
inactive: dose: 200.0 mg/kg/injection, schedule: Q04DX003 (ip), vehicle: saline 110 % of control | dose: 300.0 mg/kg/injection, schedule: Q04DX003 (ip), vehicle: saline 113 % of control

CN(C)c1ccc(C(=O)c2ccc(N(C)C)cc2)cc1
inactive: [9] 93 % of control | [11] 88 % of control | [13] 97 % of control

Nc1nc2c(c(=O)[nH]1)CP(=S)(c1ccccc1)CC2 (stereo not given)
inactive: [8] 102 % of control | [10] 102 % of control | [12] 94 % of control

O=c1c(N=Nc2ccc(Br)cc2)c(O)n(-c2ccc(Br)cc2)c(=S)n1-c1ccccc1
inactive: dose: 37.5 mg/kg/injection, schedule: Q01DX001 (ip), vehicle: Klucel (hydroxypropylcellulose) (HPC) 108 % of control | dose: 75.0 mg/kg/injection, schedule: Q01DX001 (ip), vehicle: Klucel (hydroxypropylcellulose) (HPC) 110 % of control | dose: 150.0 mg/kg/injection, schedule: Q01DX001 (ip), vehicle: Klucel (hydroxypropylcellulose) (HPC) 102 % of control

CC(=O)Nc1ccc(NC(=O)NCCCl)cc1
inactive: dose: 50.0 mg/kg/injection, schedule: Q01DX009 (ip), vehicle: Klucel (hydroxypropylcellulose) (HPC) 96 % of control | [17] 99 % of control | [1] 103 % of control | [18] 89 % of control | [2] 100 % of control

Cc1cc(C2CCCCC2)c2ccccc2c1C
inactive: dose: 100.0 mg/kg/injection, schedule: Q01DX009 (ip), vehicle: saline sonified 95 % of control | [1] 103 % of control | dose: 200.0 mg/kg/injection, schedule: Q01DX009 (ip), vehicle: saline sonified 102 % of control | [2] 98 % of control | dose: 400.0 mg/kg/injection, schedule: Q01DX009 (ip), vehicle: saline sonified 99 % of control | [3] 106 % of control

O=C(NCCCl)Nc1cccc(Cl)c1
inactive: dose: 25.0 mg/kg/injection, schedule: Q01DX001 (ip), vehicle: saline with Tween-80 97 % of control | dose: 50.0 mg/kg/injection, schedule: Q01DX001 (ip), vehicle: saline with Tween-80 94 % of control | [7] 86 % of control

CCc1ccccc1NC(=O)COc1ccc(Cl)cc1
inactive: [17] 98 % of control | [18] 96 % of control | dose: 400.0 mg/kg/injection, schedule: Q01DX009 (ip), vehicle: Klucel (hydroxypropylcellulose) (HPC) 91 % of control

O=[N+]([O-])c1ccc(C=Nc2ccc(OCc3ccccc3)cc2)s1
inactive: [1] 91 % of control | [2] 88 % of control | [3] 91 % of control

COC(=O)C(Br)C(Br)c1ccc(OC)c(OC)c1 (stereo not given)
inactive: [1] 96 % of control | [2] 101 % of control | [3] 96 % of control

CC(=O)C(C(N)=O)C(c1ccc2c(c1)OCO2)C(C(C)=O)C(=O)NCc1ccccc1 (stereo not given)
inactive: dose: 25.6 mg/kg/injection, schedule: Q04DX002 (ip), vehicle: saline with Tween-80 98 % of control | dose: 64.0 mg/kg/injection, schedule: Q04DX002 (ip), vehicle: saline with Tween-80 95 % of control | [9] 87 % of control | dose: 160.0 mg/kg/injection, schedule: Q04DX002 (ip), vehicle: saline with Tween-80 91 % of control | [11] 90 % of control | [12] 98 % of control | [13] 91 % of control

COc1cc2c(cc1OC)C(C(C)C)NCC2O (stereo not given)
inactive: dose: 100.0 mg/kg/injection, schedule: Q01DX001 (ip), vehicle: saline 98 % of control | dose: 200.0 mg/kg/injection, schedule: Q01DX001 (ip), vehicle: saline 96 % of control
